Publication PMC12093506, “Synthesis, characterization, and in vitro and in silico α-glucosidase inhibitory evolution of novel N′-(2-cyclopentyl-2-phenylacetyl)cinnamohydrazide derivatives” (RSC Advances, 2025)
Where two headings read alike, the source gives them in different places. Blank lines part the entries; values can stand above or below the compound they belong to.

Tests used:
[1] = molecular target: T1, α-glucosidase (maltase) enzyme from Yeast (Saccharomyces cerevisiae, UniProt P53341); test: biochemical; assay type: biochemical
T1 construct: purchased Sisco Research Laboratories Pvt; Ltd
Procedure: The test compounds were evaluated for their α-glucosidase inhibitory activity following the methodology outlined by Pistia et al.[62] and Bhatia et al.[63] […] The compounds at varied concentrations ranging from 50 to 200 μg mL^−1 were combined with 50 μL of α-glucosidase (maltase) enzyme solution (1 U mL^−1) from Yeast (Sisco Research Laboratories Pvt. Ltd). The mixer was placed at a temperature of 37 °C for duration of 15 minutes, after the addition of 0.1 M phosphate buffer (pH 6.8). Afterward, 25 μl of substrate buffer was introduced into the system to initiate the reaction, and the incubation was prolonged at a temperature of 37 °C for a length of 15 minutes. Finally, the reaction was stopped by adding 50 μl of a 0.2 M sodium carbonate solution, thereby terminating the processes. The measurement was determined at a wavelength of 450 nm. […] The measurement of enzyme activity was carried out as follows.
The formula for calculating the percentage is (ODblank − ODsample) divided by ODblank, multiplied by 100.
A unit of enzyme may be accurately defined as the amount of α-glucosidase enzyme required to generate one micromole of p-nitrophenol (product) from p-nitrophenyl-α-D-glucopyranoside (substrate) for a time of one minute. The IC50, representing the concentration required to inhibit 50% of the enzyme activity, was determined by fitting a regression equation to a graph that plotted concentration (varying from 50–200 μg mL^−1) on the X-axis and percentage of inhibition on the Y-axis for various fractions and extracts.

[2] = molecular target: α-glucosidase; conditions: cited from earlier work
[3] = yeast α-glucosidase (maltase) 1 U mL^−1, phosphate buffer pH 6.8, 37 °C
[4] = yeast α-glucosidase (maltase) 1 U mL^−1, phosphate buffer pH 6.8, 37 °C, read-out: IC50 (α-glucosidase inhibition)
[5] = hydrazine-type compounds, Fig. 1
[6] = compounds with phenyl rings, Fig. 1

T1 sequence (P53341 whole entry): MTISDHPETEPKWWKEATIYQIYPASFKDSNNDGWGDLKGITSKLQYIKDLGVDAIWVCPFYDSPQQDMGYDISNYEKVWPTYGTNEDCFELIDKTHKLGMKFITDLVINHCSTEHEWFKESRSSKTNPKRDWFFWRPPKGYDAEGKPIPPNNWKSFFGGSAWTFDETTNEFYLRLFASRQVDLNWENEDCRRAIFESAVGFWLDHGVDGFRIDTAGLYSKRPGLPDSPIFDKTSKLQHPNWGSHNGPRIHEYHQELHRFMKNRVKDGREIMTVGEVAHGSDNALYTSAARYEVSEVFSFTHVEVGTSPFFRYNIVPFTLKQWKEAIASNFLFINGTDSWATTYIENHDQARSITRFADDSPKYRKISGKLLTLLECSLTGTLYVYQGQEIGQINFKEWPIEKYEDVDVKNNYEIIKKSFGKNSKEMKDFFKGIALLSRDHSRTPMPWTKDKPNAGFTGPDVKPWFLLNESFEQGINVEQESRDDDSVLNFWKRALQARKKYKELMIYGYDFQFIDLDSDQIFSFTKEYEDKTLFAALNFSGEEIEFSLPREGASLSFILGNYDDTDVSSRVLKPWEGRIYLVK

Compound: O=C(C=Cc1ccccc1)NNC(=O)C(c1ccccc1)C1CCCC1 (centres unmarked) [Compound 6a, N′-(2-Cyclopentyl-2-phenylacetyl)cinnamohydrazide]
- IC50 [1]: 79.8 nM

Compound: O=C(C=Cc1ccccc1Br)NNC(=O)C(c1ccccc1)C1CCCC1 (centres unmarked) [Compound 6b, 3-(2-Bromophenyl)-N′-(2-cyclopentyl-2-phenylacetyl)acrylohydrazide]
- IC50 [1]: 104 nM
- IC50 (α-glucosidase inhibition) [1, 3]: moderate inhibition

Compound: O=C(C=Cc1cccc(Br)c1)NNC(=O)C(c1ccccc1)C1CCCC1 (centres unmarked) [Compound 6c, 3-(3-Bromophenyl)-N′-(2-cyclopentyl-2-phenylacetyl)acrylohydrazide]
- IC50 [1]: 46.8 nM

Compound: O=C(C=Cc1ccc(Br)cc1)NNC(=O)C(c1ccccc1)C1CCCC1 (centres unmarked) [Compound 6d, 3-(4-Bromophenyl)-N′-(2-cyclopentyl-2-phenylacetyl)acrylohydrazide]
- IC50 [1]: 64.8 nM

Compound: Cc1ccc(C=CC(=O)NNC(=O)C(c2ccccc2)C2CCCC2)cc1 (centres unmarked) [Compound 6e, N′-(2-Cyclopentyl-2-phenylacetyl)-3-(p-tolyl)acrylohydrazide]
- IC50 [1]: 233 nM
- IC50 (α-glucosidase inhibition) [1, 3]: moderate inhibition

- IC50 (α-glucosidase inhibition) [1, 3]: no inhibition effect
Compound: O=C(/C=C/c1ccc(F)cc1)NNC(=O)C(c1ccccc1)C1CCCC1 (centres unmarked) [Compound 6f, 3-(4-Fluoro)-N′-(2-cyclopentyl-2-phenylacetyl)acrylohydrazide]

Compound: O=C(C=Cc1cccc([N+](=O)[O-])c1)NNC(=O)C(c1ccccc1)C1CCCC1 (centres unmarked) [Compound 6g, 3-(3-Nitrophenyl)-N′-(2-cyclopentyl-2-phenylacetyl)acrylohydrazide]
- IC50 [1]: 28.5 nM

Compound: O=C(C=Cc1ccccc1)NNC(=O)C(c1cc(F)c(F)cc1F)C1CCCC1 (centres unmarked) [Compound 7a, N′-(2-cyclopentyl-2-(2,4,5-trifluorophenyl)acetyl)cinnamohydrazide]
- IC50 [1]: 85.2 nM

- IC50 [1, 4]: 14.5 nM
Compound: Cc1ccc(C=CC(=O)NNC(=O)C(c2cc(F)c(F)cc2F)C2CCCC2)cc1 (centres unmarked) [Compound 7b, N′-(2-Cyclopentyl-2-(2,4,5-trifluorophenyl)acetyl)-3-(p-tolyl)acrylohydrazide]

- IC50 [1, 4]: 49.3 nM
Compound: O=C(C=Cc1ccc(Br)cc1)NNC(=O)C(c1cc(F)c(F)cc1F)C1CCCC1 (centres unmarked) [Compound 7c, 3-(4-Bromophenyl)-N′-(2-cyclopentyl-2-(2,4,5-trifluorophenyl)acetyl)acrylohydrazide]

- IC50 [1, 4]: 18.9 nM
Compound: O=C(C=Cc1cccc(Cl)c1)NNC(=O)C(c1cc(F)c(F)cc1F)C1CCCC1 (centres unmarked) [Compound 7d, 3-(3-Chlorophenyl)-N′-(2-cyclopentyl-2-(2,4,5-trifluorophenyl)acetyl)acrylohydrazide]

- IC50 (α-glucosidase inhibition) [1, 3]: no effect on inhibition
Compound: COc1ccc(C=CC(=O)NNC(=O)C(c2cc(F)c(F)cc2F)C2CCCC2)cc1 (centres unmarked) [Compound 7e, N′-(2-Cyclopentyl-2-(2,4,5-trifluorophenyl)acetyl)-3-(4-methoxyphenyl)acrylohydrazide]

Compound: O=C(C=Cc1cccc(Br)c1)NNC(=O)C(c1cc(F)c(F)cc1F)C1CCCC1 (centres unmarked) [Compound 7f, 3-(3-Bromophenyl)-N′-(2-cyclopentyl-2-(2,4,5-trifluorophenyl)acetyl)acrylohydrazide]
- IC50 [1]: 33.2 nM

Compound: O=C(C=Cc1cccc([N+](=O)[O-])c1)NNC(=O)C(c1cc(F)c(F)cc1F)C1CCCC1 (centres unmarked) [Compound 7g, 3-(3-Nitrophenyl)-N′-(2-cyclopentyl-2-(2,4,5-trifluorophenyl)acetyl)acrylohydrazide]
- IC50 [1]: 54.8 nM

Compound: CC(C(=O)NN)c1ccc(-c2ccccc2)c(F)c1 (centres unmarked) [III]
- IC50 [2, 5]: 25200 nM

Compound: O=C(/C=C/c1ccc(O)cc1)N1CC(O)C(O)C1 (centres unmarked) [II]
- IC50 ([2]; deacetylsarmentamide derivative): 546000 nM

Compound: CC(C(=O)NNC(=O)c1cccc(Cl)c1)c1ccc(-c2ccccc2)c(F)c1 (centres unmarked) [IV]
- IC50 [2, 5]: 10400 nM

Compound: C=CCc1ccc(OC(=O)/C=C/c2ccc(O)cc2)c(-c2cc(CC=C)ccc2OC(=O)/C=C/c2ccc(O)cc2)c1 [I]
- Ki ([2]; Fig. 1): 2480 nM
- IC50 ([2]; cinnamic acid magnolol derivative): 5110 nM

Compound: O=[N+]([O-])c1ccc2cc(-c3ncc(-c4ccccc4F)o3)oc2c1 [VI]
- IC50 [2, 6]: 13400 nM

Compound: Fc1ccccc1/C=N/c1ccc2cn[nH]c2c1 [V]
- IC50 [2, 6]: 8510 nM
